In publication PMC9518264, “Design and synthesis of novel quinazolinone-based derivatives as EGFR inhibitors with antitumor activity” (Journal of Enzyme Inhibition and Medicinal Chemistry, 2022):

What was measured:
[1] = system: K-562; experiment: cells; format: cell-based; conditions: Homo sapiens, K562; K-562; 10 μM; supplementary table 3a-g; read-out: growth inhibition % (GI %)
[2] = system: SR; experiment: cells; format: cell-based; conditions: Homo sapiens, 10 μM, supplementary table 3a-g, read-out: growth inhibition % (GI %)
[3] = system: HOP-92; experiment: cells; format: cell-based; conditions: Homo sapiens; HOP-92; 10 μM; supplementary table 3a-g; read-out: growth inhibition % (GI %)
[4] = system: NCI-H226; experiment: cells; format: cell-based; conditions: Homo sapiens; NCI-H226; 10 μM; supplementary table 3a-g; read-out: growth inhibition % (GI %)
[5] = system: RXF 393; experiment: cells; format: cell-based; conditions: Homo sapiens; RXF 393; 10 μM; supplementary table 3a-g; read-out: growth inhibition % (GI %)
[6] = system: UO-31; experiment: cells; format: cell-based; conditions: Homo sapiens; UO-31; 10 μM; supplementary table 3a-g; read-out: growth inhibition % (GI %)
[7] = system: panel of 60 tumour cell lines; experiment: NCI 60 cell line antiproliferative screening (SRB), whole panel or subpanels (means, ranges, words); format: cell-based, human; conditions: Homo sapiens, 60 cell, mean over the cell line panel; 10 μM; supplementary table 3a-g; read-out: Mean inhibition
[8] = system: caspase-3; experiment: Caspase-3 activation (ELISA) in breast HS 578T cancer cell line; format: cell-based, human
Method: Apoptosis is triggered by the activation of caspases, particularly caspase-3, which is an […] caspase responsible for apoptosis. Therefore, the induction of apoptosis by compound 6d was examined by the evaluation of caspase-3 activation in breast HS 578T cancer cell line. The effect of erlotinib as well as untreated cell line was used as positive and negative control, respectively. […] . […]
incubated for 15 minutes in the dark at room temperature. FacsCalibur was used to assess cell fluorescence after incubation (BD Biosciences, USA). The results were represented using dot-plot graphs.
1.1.5. Caspase-3 enzyme assay
The level of the apoptotic marker caspase-3 was measured using Invitrogen ELISA Kit Catalog # KHO1091. The procedure of the used kit was performed according to the manufacturer’s instructions. Let all components to reach room temperature before use. Gently combine all liquid reagents prior to use. Add 100 μL of the standard diluent buffer to the zero standard wells. Add 100 μL of standards and controls or diluted samples to the appropriate microtiter wells. Incubate for 2 h at room temperature. Pipette 100 μL of Caspase-3 (Active) detection antibody solution into each well. […] Read the absorbance of each well at 450 nm. Read the plate within 2 h after adding the stop solution. […] Read the concentrations for unknown samples and controls from the standard curve.

Row | SMILES | inhibition at 10 µM [1] [%] | inhibition at 10 µM [2] [%] | inhibition at 10 µM [3] [%] | inhibition at 10 µM [4] [%] | inhibition at 10 µM [5] [%] | inhibition at 10 µM [6] [%] | inhibition at 10 µM [7] [%] | melting point [°C] | increase of caspase-3 level compared to negative control [8] [fold]
1 | COc1ccc(Oc2ccc(C=NNc3nc4ccccc4c(=O)n3-c3ccccc3)cc2)cc1 [3c, 2–(2-(4–(4-methoxyphenoxy)benzylidene)hydrazinyl)-3-phenylquinazolin-4(3H)-one] | 24.8 | 16 | < 15 | 15.2 | < 15 | 21.6 | 1.6 | 185 to 188 | –
2 | O=c1c2ccccc2nc(NN=Cc2ccc(N3CCCCC3)cc2)n1-c1ccccc1 [3e, 3-phenyl-2–(2-(4-(piperidin-1-yl)benzylidene)hydrazinyl)quinazolin-4(3H)-one] | < 15 | < 15 | < 15 | < 15 | < 15 | < 15 | < 0 | 160 to 166 | –
3 | O=c1c2ccccc2nc(NN=Cc2ccc(Oc3ccc(Cl)cc3)cc2)n1-c1ccc(Cl)cc1 [3d, 2–(2-(4–(4-chlorophenoxy)benzylidene)hydrazinyl)-3–(4-chlorophenyl)quinazolin-4(3H)-one] | < 15 | < 15 | < 15 | < 15 | – | < 15 | < 0 | 212 to 214 | –
4 | O=c1c2ccccc2nc(NN=Cc2ccc(Oc3ccc(Br)cc3)cc2)n1-c1ccccc1 [3b, 2–(2-(4–(4-bromophenoxy)benzylidene)hydrazinyl)-3-phenylquinazolin-4(3H)-one] | < 15 | < 15 | – | – | – | < 15 | < 0 | 198 to 200 | –
5 | O=c1c2ccccc2nc(NN=Cc2ccc(Oc3ccc(Cl)cc3)cc2)n1-c1ccccc1 [3a, 2–(2-(4–(4-chlorophenoxy)benzylidene)hydrazinyl)-3-phenylquinazolin-4(3H)-one] | < 15 | < 15 | < 15 | < 15 | < 15 | < 15 | < 0 | 158 to 164 | –
6 | CN1CCN(c2ccc(C=NNc3nc4ccccc4c(=O)n3-c3ccccc3)cc2)CC1 [3g, 2–(2-(4–(4-methylpiperazin-1-yl)benzylidene)hydrazinyl)-3-phenylquinazolin-4(3H)-one] | < 15 | < 15 | 16 | < 15 | 25.1 | 21 | < 0 | 208 to 210 | –
7 | O=c1c2ccccc2nc(NN=Cc2ccc(N3CCOCC3)cc2)n1-c1ccccc1 [3f, 2–(2-(4-morpholinobenzylidene)hydrazinyl)-3-phenylquinazolin-4(3H)-one] | < 15 | < 15 | < 15 | < 15 | < 15 | < 15 | < 0 | 242 to 244 | –
8 | C#Cc1cccc(Nc2ncnc3cc(OCCOC)c(OCCOC)cc23)c1 [Erlotinib, erlotinib, reference compound] | – | – | – | – | – | – | – | – | 8.78
